Laboratory results from article PMC3579312 (Journal of Medicinal Chemistry, 2013).
Entries after “also recorded” stand apart in the source; their conditions may differ.

Columns and labels:
[1] = tested on: Trypanosoma brucei brucei bloodstream-form (strain 427); assay: Trypanocidal activity, Alamar Blue viability, 72 h; format: cell-based; details: for Selectivity Index: HeLa EC50 versus T. brucei EC50; for combined trypanocidal action of 22s with nifurtimox: Figure 4
22s-resistant T. brucei = assay: Trypanocidal activity against cloned 22s-resistant cell line; format: cell-based, Trypanosoma brucei; details: 22s in 22s-resistant cells versus nifurtimox in wild-type
[2] = tested on: human African trypanosomiasis; details: cited from earlier work
[3] = tested on: nifurtimox-resistant T. brucei; assay: Trypanocidal activity against cloned nifurtimox-resistant cell line; format: cell-based, Trypanosoma brucei
Chagas’ disease = details: patients with Chagas’ disease; cited from earlier work

Row | Compound | Selectivity Index [1] | other results
1 | CCOC(=O)c1cc(CC)sc1NC(=O)c1ccc([N+](=O)[O-])o1 [Compound 12a, Ethyl 5-Ethyl-2-(5-nitrofuran-2-carboxamido)thiophene-3-carboxylate] | >640 | 
2 | CCCCc1cc(C(=O)OCC)c(NC(=O)c2ccc([N+](=O)[O-])o2)s1 [Compound 12b] | >160 | 
3 | CCCCOC(=O)c1cc(CC)sc1NC(=O)c1ccc([N+](=O)[O-])o1 [Compound 12d] | >625 | 
4 | CCNC(=O)c1cc(CC)sc1NC(=O)c1ccc([N+](=O)[O-])o1 [Compound 12e] | >136 | 
5 | CCCCNC(=O)c1cc(CC)sc1NC(=O)c1ccc([N+](=O)[O-])o1 [Compound 12f] | >60 | 
6 | CCc1cc(C(N)=O)c(NC(=O)c2ccc([N+](=O)[O-])o2)s1 [Compound 12g, N-(3-Carbamoyl-5-ethylthiophen-2-yl)-5-nitrofuran-2-carboxamide] | >1155 | 
7 | CCc1cc(C(=O)NCCO)c(NC(=O)c2ccc([N+](=O)[O-])o2)s1 [Compound 12h] | >253 | 
8 | O=C(Nc1cccs1)c1ccc([N+](=O)[O-])o1 [Compound 12j] | >322 | 
9 | CCOC(=O)c1ccsc1NC(=O)c1ccc([N+](=O)[O-])o1 [Compound 12k] | >278 | 
10 | CCc1cc(C(N)=O)c(N)s1 [Compound 13g] |  | activity against T. brucei (in words) [1]: inactive
11 | CCOC(=O)c1cc(CC)sc1NC(=O)c1ccco1 [Compound 18a] |  | activity against T. brucei (in words) [1]: no activity
12 | COC(=O)c1ccc([N+](=O)[O-])o1 [Compound 19] |  | activity against T. brucei (in words) [1]: inactive
13 | CCc1cc(C(N)=O)c(NC(=O)c2cccc([N+](=O)[O-])c2)s1 [Compound 20b] | >8 | 
14 | O=C(Nc1ccccc1)c1ccc([N+](=O)[O-])o1 [Compound 22b] | >710 | 
15 | O=C(Nc1cccc(Br)c1)c1ccc([N+](=O)[O-])o1 [Compound 22f] | >192 | 
16 | COc1cccc(NC(=O)c2ccc([N+](=O)[O-])o2)c1 [Compound 22g] | >345 | 
17 | O=C(Nc1ccc(C(F)(F)F)cc1)c1ccc([N+](=O)[O-])o1 [Compound 22h, 5-Nitro-N-(4-(trifluoromethyl)phenyl)furan-2-carboxamide] | >158 | 
18 | O=C(Nc1ccc(Cl)cc1)c1ccc([N+](=O)[O-])o1 [Compound 22i] | >48 | 
19 | COC(=O)c1ccc(NC(=O)c2ccc([N+](=O)[O-])o2)cc1 [Compound 22j] | >29 | 
20 | COc1ccc(NC(=O)c2ccc([N+](=O)[O-])o2)cc1 [Compound 22k] | >261 | 
21 | O=C(NCc1cccc(C(F)(F)F)c1)c1ccc([N+](=O)[O-])o1 [Compound 22l, 5-nitro-N-(3-(trifluoromethyl)benzyl)furan-2-carboxamide] | >1149 | 
22 | COc1cc(NC(=O)c2ccc([N+](=O)[O-])o2)cc(C(F)(F)F)c1 [Compound 22m] | >752 | 
23 | O=C(Nc1cc(C(F)(F)F)cc(C(F)(F)F)c1)c1ccc([N+](=O)[O-])o1 [Compound 22n] | >78 | 
24 | O=C(Nc1ccc(O)cc1)c1ccc([N+](=O)[O-])o1 [Compound 22p] | >50 | 
25 | O=C(Nc1ccc(O)c(C(F)(F)F)c1)c1ccc([N+](=O)[O-])o1 [Compound 22r] | >9 | 
26 | C=CCOc1ccc(NC(=O)c2ccc([N+](=O)[O-])o2)cc1C(F)(F)F [Compound 22s, N-(4-(Allyloxy)-3-(trifluoromethyl)phenyl)-5-nitrofuran-2-carboxamide] | >8330 | combined trypanocidal action of 22s with nifurtimox ([1]; nifurtimox <700 nM, EC50 of 22s): synergy can be observed; also recorded: synergistic relationship; combined trypanocidal action of 22s with nifurtimox ([1]; nifurtimox above 700 nM): distinct lack of synergy; potency in 22s-resistant cells relative to nifurtimox in wild-type T. brucei (22s-resistant T. brucei): ~70 times
27 | C=CCOc1ccc(N(CC=C)C(=O)c2ccc([N+](=O)[O-])o2)cc1C(F)(F)F [Compound 22t] | >9 | 
28 | COc1ccc(NC(=O)c2ccc([N+](=O)[O-])o2)cc1C [Compound 22v] | >525 | 
29 | Nc1nc(N)nc(Nc2ccc([As]3SCC(CO)S3)cc2)n1 (stereo not shown) [Melarsoprol (3), melarsoprol] |  | death, share of cases ([2]; HAT patients): ~6%; treatment failure rate ([2]; in certain areas): ≤ 30%
30 | CC1CS(=O)(=O)CCN1/N=C/c1ccc([N+](=O)[O-])o1 (stereo not shown) [Nifurtimox (5), Nifurtimox] |  | EC50 ([1]; read-out: T. brucei EC50, wild-type bloodstream form, 72 h): 2.1 ± 0.2 µM; EC50 ([3]; Trypanosoma brucei, read-out: EC50, nifurtimox resistant cells): 20.9 ± 1.7 µM; fold increase in EC50 (less sensitive) versus wild-type cells ([3]; nifurtimox-resistant versus wild-type): 9–10 fold; treatment cessation due to adverse side effects, share of patients (Chagas’ disease): over 30%
